From patent US10550105B2 (Ribon Therapeutics Inc., priority 2018, dated 2020)

Tests used:
Assay type in all cases: cell-based
TE-11 = experiment: Growth inhibition of cancer cell lines, 144 hours (CellTiter-Glo); conditions: Homo sapiens, esophageal squamous cell carcinoma
Procedure: (§1) Example C: Inhibition of Cancer Cell Growth by Treatment with PARP7 Inhibitors
(§2) Table A-2 and Table A-3 (below) represents the concentration that causes 50% growth inhibition (GI50) in a panel of cancer cell lines with Compound 18B and Compound 561. Cells were plated into 384-well plates at a pre-specified density in fetal bovine serum-containing media. Cells were treated with compound or vehicle (DMSO) 24 hrs later, and a day zero plate was collected for analysis. Test compound plates were incubated continuously for 72 hrs (Table A-2) or 144 hours (Table A-3) cell growth was assessed using a luminescent cell viability assay (CellTiter-Glo, Promega). The GI50was determined by correcting for the cell count at time zero (time of treatment) and plotting data as percent growth relative to vehicle-treated cells.

EBC-1 = experiment: as above; conditions: Homo sapiens, squamous cell lung carcinoma
Procedure: as §1, §2

HT-1080 = experiment: as above; conditions: Homo sapiens, fibrosarcoma
Procedure: as §1, §2

NCI-H1373 [1] = experiment: as above; conditions: Homo sapiens, lung adenocarcinoma
Procedure: as §1, §2

NCI-H441 = experiment: as above; conditions: Homo sapiens, papillary adenocarcinoma of the lung
Procedure: as §1, §2

SF126 = experiment: as above; conditions: Homo sapiens, SF-126, glioblastoma multiforme
Procedure: as §1, §2

NCI-H2066 [2] = experiment: as above; conditions: squamous cell lung carcinoma
Procedure: as §1, §2

NCI-H2291 = experiment: as above; conditions: Homo sapiens, lung adenocarcinoma
Procedure: as §1, §2

HCC827 = experiment: as above; conditions: Homo sapiens, lung adenocarcinoma
Procedure: as §1, §2

A101D = experiment: as above; conditions: Homo sapiens, melanoma
Procedure: as §1, §2

MDA-MB-468 [3] = experiment: as above; conditions: Homo sapiens, breast adenocarcinoma
Procedure: as §1, §2

YD-10B = experiment: as above; conditions: tongue squamous cell carcinoma
Procedure: as §1, §2

KALS-1 = experiment: as above; conditions: Homo sapiens, glioblastoma
Procedure: as §1, §2

Panc 03.27 = experiment: as above; conditions: Homo sapiens, PANC-03-27, pancreatic adenocarcinoma
Procedure: as §1, §2

CFPAC-1 = experiment: as above; conditions: Homo sapiens, pancreatic ductal adenocarcinoma
Procedure: as §1, §2

HPAF-II = experiment: as above; conditions: Homo sapiens, pancreatic adenocarcinoma
Procedure: as §1, §2

Caki-1 = experiment: as above; conditions: Homo sapiens, clear cell renal cell carcinoma
Procedure: as §1, §2

NCI-H1648 = experiment: as above; conditions: Homo sapiens, lung adenocarcinoma
Procedure: as §1, §2

NCI-H2009 = experiment: as above; conditions: Homo sapiens, lung adenocarcinoma
Procedure: as §1, §2

NCI-H2087 = experiment: as above; conditions: Homo sapiens, lung adenocarcinoma
Procedure: as §1, §2

KMBC-2 = experiment: as above; conditions: bladder carcinoma
Procedure: as §1, §2

SCaBER = experiment: as above; conditions: Homo sapiens, bladder squamous cell carcinoma
Procedure: as §1, §2

MCAS = experiment: as above; conditions: ovarian mucinous cystadenocarcinoma
Procedure: as §1, §2

LN-18 = experiment: as above; conditions: Homo sapiens, glioblastoma
Procedure: as §1, §2

ACC-MESO-1 = experiment: as above; conditions: mesothelioma
Procedure: as §1, §2

H4 = experiment: as above; conditions: neuroglioma
Procedure: as §1, §2

CAL-27 = experiment: as above; conditions: Homo sapiens, tongue squamous cell carcinoma
Procedure: as §1, §2

NCI-H2347 = experiment: as above; conditions: Homo sapiens, lung adenocarcinoma
Procedure: as §1, §2

GCT = experiment: as above; conditions: Homo sapiens, undifferentiated pleiomorphic sarcoma
Procedure: as §1, §2

SK-MES-1 = experiment: as above; conditions: Homo sapiens, squamous cell lung carcinoma
Procedure: as §1, §2

AGS = experiment: as above; conditions: Homo sapiens, gastric adenocarcinoma
Procedure: as §1, §2

SNU-840 = experiment: as above; conditions: malignant ovarian Brenner tumor
Procedure: as §1, §2

COLO 680N = experiment: as above; conditions: Homo sapiens, esophageal squamous cell carcinoma
Procedure: as §1, §2

TUHR10TKB = experiment: as above; conditions: renal cell carcinoma
Procedure: as §1, §2

SK-LU-1 = experiment: as above; conditions: Homo sapiens, lung adenocarcinoma
Procedure: as §1, §2

KMRC-3 = experiment: as above; conditions: clear cell renal carcinoma
Procedure: as §1, §2

NCI-H1373 [4] = experiment: Growth inhibition of cancer cell lines, 72 hrs (CellTiter-Glo); conditions: Homo sapiens, lung, adenocarcinoma
Procedure: as §1, §2

HCC-1195 = experiment: as above; conditions: lung, mixed adenosquamous carcinoma
Procedure: as §1, §2

GSS = experiment: as above; conditions: stomach, adenocarcinoma
Procedure: as §1, §2

NCI-H2066 [5] = experiment: as above; conditions: lung, small cell carcinoma
Procedure: as §1, §2

MDA-MB-468 [6] = experiment: as above; conditions: Homo sapiens, breast, not specified
Procedure: as §1, §2

NCI-H1975 = experiment: as above; conditions: Homo sapiens, lung, non small cell carcinoma
Procedure: as §1, §2

HCC1599 = experiment: as above; conditions: Homo sapiens, breast, ductal carcinoma
Procedure: as §1, §2

NCI-H1437 = experiment: as above; conditions: Homo sapiens, lung, adenocarcinoma
Procedure: as §1, §2

`C[C@@H](COCCC(=O)N1CCN(c2ncc(C(F)(F)F)cn2)CC1)Nc1cn[nH]c(=O)c1C(F)(F)F` [Example 561, 5-[[(2S)-1-(3-oxo-3-[4-[5-(trifluoromethyl)pyrimidin-2-yl]piperazin-1-yl]propoxy)propan-2-yl]amino]-4-(trifluoromethyl)-2,3-dihydropyridazin-3-one] showed a GI50 (TE-11) of at least 1 µM, a GI50 (EBC-1) of under 0.1 µM and a GI50 (HT-1080) of at least 1 µM. It also gave a GI50 (NCI-H1373 [1]) of under 0.1 µM, a GI50 (NCI-H441) of at least 1 µM and a GI50 (SF126) of at least 1 µM. It also gave a GI50 (NCI-H2066 [2]) of at least 1 µM, a GI50 (NCI-H2291) of at least 1 µM and a GI50 (HCC827) of under 0.1 µM. It also gave a GI50 (A101D) of at least 1 µM, a GI50 (MDA-MB-468 [3]) of at least 1 µM and a GI50 (YD-10B) of at least 1 µM. It also gave a GI50 (KALS-1) of at least 1 µM, a GI50 (Panc 03.27) of under 0.1 µM and a GI50 (CFPAC-1) of 0.1 to 1 µM. The GI50 (HPAF-II) was at least 1 µM, the GI50 (Caki-1) was under 0.1 µM and the GI50 (NCI-H1648) was at least 1 µM. The GI50 (NCI-H2009) was at least 1 µM, the GI50 (NCI-H2087) was at least 1 µM and the GI50 (KMBC-2) was at least 1 µM. For the same compound, the GI50 (SCaBER) was at least 1 µM, the GI50 (MCAS) was at least 1 µM and the GI50 (LN-18) was at least 1 µM. It also gave a GI50 (ACC-MESO-1) of at least 1 µM, a GI50 (H4) of at least 1 µM and a GI50 (CAL-27) of at least 1 µM. It also gave a GI50 (NCI-H2347) of under 0.1 µM, a GI50 (GCT) of under 0.1 µM and a GI50 (SK-MES-1) of at least 1 µM. For the same compound, the GI50 (AGS) was at least 1 µM, the GI50 (SNU-840) was at least 1 µM and the GI50 (COLO 680N) was at least 1 µM. The GI50 (TUHR10TKB) was under 0.1 µM, the GI50 (SK-LU-1) was at least 1 µM and the GI50 (KMRC-3) was at least 1 µM.
`N#Cc1ccc(N2CCN(C(=O)c3cccc(OC[C@@H]4c5ccccc5CN4c4cn[nH]c(=O)c4C(F)(F)F)c3)CC2)nc1` (single isomer, unassigned) [Example 18 Isomer B] gave a GI50 (NCI-H1373 [4]) of under 0.1 µM, a GI50 (HCC-1195) of 0.1 to 1 µM and a GI50 (GSS) of 0.1 to 1 µM. The GI50 (NCI-H2066 [5]) was 0.1 to 1 µM, the GI50 (MDA-MB-468 [6]) was under 0.1 µM and the GI50 (NCI-H1975) was 0.1 to 1 µM. For the same compound, the GI50 (HCC1599) was 0.1 to 1 µM and the GI50 (NCI-H1437) was under 0.1 µM.
